# In US20230159597A1 (priority 2020, published 2023):
# Tested on: wild-type EBOV Mayinga
Structure (SMILES),IC50 times higher than both TAT-EBO-PEG4-Chol and TAT-EBO-dPEG4-Chol,relative potency
CC[C@H](C)[C@H](NC(=O)CNC(=O)[C@H](CO)NC(=O)CNC(=O)[C@H](CCCNC(=N)N)NC(=O)[C@H](CCCNC(=N)N)NC(=O)[C@H](CCCNC(=N)N)NC(=O)[C@H](CCC(N)=O)NC(=O)[C@H](CCCNC(=N)N)NC(=O)[C@H](CCCNC(=N)N)NC(=O)[C@H](CCCCN)NC(=O)[C@H](CCCCN)NC(=O)[C@H](CCCNC(=N)N)NC(=O)CNC(=O)[C@H](Cc1ccc(O)cc1)NC(C)=O)C(=O)N[C@@H](C)C(=O)N[C@@H](C)C(=O)N[C@H](C(=O)N[C@@H](CC(C)C)C(=O)N1CCC[C@H]1C(=O)N[C@@H](Cc1c[nH]cn1)C(=O)N[C@@H](CC(=O)O)C(=O)N[C@@H](Cc1c[nH]c2ccccc12)C(=O)N[C@H](C(=O)N[C@@H](CCCCN)C(=O)N[C@@H](CC(N)=O)C(=O)N[C@H](C(=O)N[C@H](C(=O)N[C@@H](CC(=O)O)C(=O)N[C@@H](CCCCN)C(=O)N[C@H](C(=O)N[C@@H](CC(=O)O)C(=O)N[C@@H](CCC(N)=O)C(=O)N[C@H](C(=O)N[C@H](C(=O)N[C@@H](Cc1c[nH]cn1)C(=O)N[C@@H](CC(=O)O)C(=O)N[C@@H](Cc1ccccc1)C(=O)N[C@H](C(=O)N[C@@H](CC(=O)O)C(=O)N[C@@H](CCCCN)C(=O)NCC(=O)N[C@@H](CO)C(=O)NCC(=O)N[C@@H](CO)C(=O)NCC(=O)N[C@@H](CSCC(=O)NCCOCCOCCOCCOCCC(=O)O[C@H]1CC[C@@]2(C)C(=CC[C@H]3[C@@H]4CC[C@H]([C@H](C)CCCC(C)C)[C@@]4(C)CC[C@@H]32)C1)C(N)=O)C(C)C)[C@@H](C)CC)[C@@H](C)CC)[C@@H](C)CC)[C@@H](C)O)[C@@H](C)CC)[C@@H](C)O)[C@@H](C)CC [TAT-EBO-IAAILP-PEG4-Chol],around 10 times,
CC[C@H](C)[C@H](NC(=O)CNC(=O)[C@H](CO)NC(=O)CNC(=O)[C@H](CCCNC(=N)N)NC(=O)[C@H](CCCNC(=N)N)NC(=O)[C@H](CCCNC(=N)N)NC(=O)[C@H](CCC(N)=O)NC(=O)[C@H](CCCNC(=N)N)NC(=O)[C@H](CCCNC(=N)N)NC(=O)[C@H](CCCCN)NC(=O)[C@H](CCCCN)NC(=O)[C@H](CCCNC(=N)N)NC(=O)CNC(=O)[C@H](Cc1ccc(O)cc1)NC(C)=O)C(=O)N[C@@H](C)C(=O)N[C@@H](C)C(=O)N[C@H](C(=O)N[C@@H](CC(C)C)C(=O)N1CCC[C@H]1C(=O)N[C@@H](Cc1c[nH]cn1)C(=O)N[C@@H](CC(=O)O)C(=O)N[C@@H](Cc1c[nH]c2ccccc12)C(=O)N[C@H](C(=O)N[C@@H](CCCCN)C(=O)N[C@@H](CC(N)=O)C(=O)N[C@H](C(=O)N[C@H](C(=O)N[C@@H](CC(=O)O)C(=O)N[C@@H](CCCCN)C(=O)N[C@H](C(=O)N[C@@H](CC(=O)O)C(=O)N[C@@H](CCC(N)=O)C(=O)N[C@H](C(=O)N[C@H](C(=O)N[C@@H](Cc1c[nH]cn1)C(=O)N[C@@H](CC(=O)O)C(=O)N[C@@H](Cc1ccccc1)C(=O)N[C@H](C(=O)N[C@@H](CC(=O)O)C(=O)N[C@@H](CCCCN)C(=O)NCC(=O)N[C@@H](CO)C(=O)NCC(=O)N[C@@H](CO)C(=O)NCC(=O)N[C@@H](CSCC(=O)O[C@H]1CC[C@@]2(C)C(=CC[C@H]3[C@@H]4CC[C@H]([C@H](C)CCCC(C)C)[C@@]4(C)CC[C@@H]32)C1)C(N)=O)C(C)C)[C@@H](C)CC)[C@@H](C)CC)[C@@H](C)CC)[C@@H](C)O)[C@@H](C)CC)[C@@H](C)O)[C@@H](C)CC [TAT-EBO-IAAILP-Chol],,the most potent peptide we designed so far
